These are literature values, as cited in US8202852B2, “Creatine phosphate analog prodrugs, compositions and uses thereof” (XenoPort, Inc., priority 2006, dated 2012).

Read-outs that look alike come from different tables or passages of the source.

Assay in data set [1]: not given
This is another data set of the same source.

For data set [2] the following is noted: animals, diet containing up to 1%.

For the compound `CN(CC(=O)O)C(=N)N.O` [creatine monohydrate], the adverse side effects result (athletes and body builders, 2-3 gm/day) is recorded as “without adverse side effects”.

On to `CN(CC(=O)O)C(=N)NP(=O)(O)O` [creatine phosphate], for which the adverse side effects entry (patients with cardiac diseases, intravenous injection up to 8 gm/day) was “without adverse side effects”.

As to `CN(CC(=O)O)C(=N)N` [creatine, Creatine], the “overall increase in creatine phosphate levels” value in data set [1] (creatine supplementation, typically takes weeks) is reported as under 50%. The “increase in cerebral creatine phosphate” value in data set [1] (healthy volunteers, oral creatine administration) is “about 10%”.

For `NC1=NCCN1CC(=O)O` [cyclocreatine], the adverse effects entry in data set [2] is given as “do not exhibit adverse effects”.
